From US10076505B2, “Inhalation formulations of Treprostinil” (priority 2003, dated 2018)

What was measured:
[1] = in vivo; cited from earlier work
[2] = system: sheep; assay: Intravenous and aerosolized UT-15 dose response during U44069 induced pulmonary hypertension (Example V); format: in vivo; conditions: U44069 infused intravenously at 1 ng per kg per min
Source text: Sheep were used as the animal model of choice for these experiments for a number of reasons. First is the docile nature of sheep. They will stand quietly in metabolic cages without having to utilize tranquilizing drugs, which have the potential to complicate experimental results. Second, sheep are large enough to allow direct measurement of CO, PPA, PLA, PCV, and PSYS. Sheep are also large enough to allow direct aerosolization of substances into the lung via trachoestomy thereby preventing swallowing of drugs and thus eliminating a possible secondary route of administration of UT-15. Third, sheep can tolerate a great amount of instrumentation with little or no discomfort. Fourth, sheep have been utilized for several years as an animal model of pulmonary arterial hypertension and thus, there is a great amount of historical data with which to compare the results. […] The reasons for using U44069 are that it is a very potent pulmonary vasoconstrictor, its characteristics are very similar to endogenously formed thromboxane A2, and it can be titrated to induce the desired degree of pulmonary vasoconstriction. U44069 was mixed with sterile normal saline immediately prior to being used and was protected from light by wrapping the solution with aluminum foil. The concentration of U44069 was adjusted such that a minimal flow rate of 0.8 ml per min was being infused into the sheep. This was done because more concentrated U44069 would have to be infused at very low rates and often causes “pulses” of U44069 due to the infusion characteristics of roller pumps. The U44069 pulses cause vasoconstriction “spikes” and thus would create induce a non-steady-state. Six yearling sheep (3 males, 3 females; 21-37 kg) were fasted 18-24 hours and initially anesthetized with a short acting barbiturate (thiopental) to allow intubation of the sheep. Halothane gas anesthesia (1.5-2.5%) was then used for the surgical procedures. Via a left thoracotomy, a Transonic blood flow probe was placed around the main pulmonary artery, silastic catheters placed in the main pulmonary artery and left atrium. After approximately 7 days the sheep were reanesthetized and the left carotid artery cannulated, a Cordis Introducer Sheath inserted in the left jugular vein, and a tracheotomy made. The sheep were allowed to recover for another 3-5 days prior to experimentation. These sheep were used to allow measurement of pulmonary arterial pressure (PPA), left atrial pressure (PLA), central venous pressure (PCV), systemic arterial pressure (PSYS), heart rate (HR), and cardiac output (CO) after baseline measurements were made for a minimum of 30 minutes. Two separate experiments were conducted to determine the dose response effects of intravenously infused UT-15 and aerosolized UT-15 during U44069 induced pulmonary hypertension. After a 30 minute baseline was established, U44069 was infused intravenously at a rate of 1 ng per kg per min. For the intravenous administration of UT-15 and after allowing the sheep to achieve a steady-state for 30-60 minutes, a dose-response to intravenous UT-15 was similar to that set forth in Example IV. For the aerosolized administration of UT-15 and after allowing the sheep to achieve a steady-state for 30-60 minutes, a dose-response to intravenous UT-15 was similar to that set forth in Example IV. In each experimental protocol, UT-15 was administered to three sheep for 30 minutes and to the other three sheep for 60 minutes.

[3] = system: sheep; assay: Prolonged U44069 intravenous infusion, pulmonary vascular resistance and hemodynamics (Example II); format: in vivo
Source text: Sheep were used as the animal model of choice for these experiments for a number of reasons. First is the docile nature of sheep. They will stand quietly in metabolic cages without having to utilize tranquilizing drugs, which have the potential to complicate experimental results. Second, sheep are large enough to allow direct measurement of CO, PPA, PLA, PCV, and PSYS. Sheep are also large enough to allow direct aerosolization of substances into the lung via trachoestomy thereby preventing swallowing of drugs and thus eliminating a possible secondary route of administration of UT-15. Third, sheep can tolerate a great amount of instrumentation with little or no discomfort. Fourth, sheep have been utilized for several years as an animal model of pulmonary arterial hypertension and thus, there is a great amount of historical data with which to compare the results. The agent chosen to induce pulmonary arterial hypertension was a PGH2 analog, U44069 (9,11-dideoxy,9α,11α-epoxymethanoprostaglandin F2α). The reasons for using U44069 are that it is a very potent pulmonary vasoconstrictor, its characteristics are very similar to endogenously formed thromboxane A2, and it can be titrated to induce the desired degree of pulmonary vasoconstriction. U44069 was mixed with sterile normal saline immediately prior to being used and was protected from light by wrapping the solution with aluminum foil. The concentration of U44069 was adjusted such that a minimal flow rate of 0.8 ml per min was being infused into the sheep. This was done because more concentrated U44069 would have to be infused at very low rates and often causes “pulses” of U44069 due to the infusion characteristics of roller pumps. The U44069 pulses cause vasoconstriction “spikes” and thus would create induce a non-steady-state.
Six yearling sheep (3 males, 3 females; 21-37 kg) were fasted 18-24 hours and initially anesthetized with a short acting barbiturate (thiopental) to allow intubation of the sheep. Halothane gas anesthesia (1.5-2.5%) was then used for the surgical procedures. Via a left thoracotomy, a Transonic blood flow probe was placed around the main pulmonary artery, silastic catheters placed in the main pulmonary artery and left atrium. After approximately 7 days the sheep were reanesthetized and the left carotid artery cannulated, a Cordis Introducer Sheath inserted in the left jugular vein, and a tracheotomy made. The sheep were allowed to recover for another 3-5 days prior to experimentation. These sheep were used to allow measurement of pulmonary arterial pressure (PPA), left atrial pressure (PLA), central venous pressure (PCV), systemic arterial pressure (PSYS), heart rate (HR), and cardiac output (CO) after baseline measurements were made for a minimum of 30 minutes.
In four sheep, the ability of U44069 to maintain a steady-state increase in PVR was determined. After a 30 minute baseline, U44069 was infused at a rate of 1 microgram per kg of body weight per minute for 180 minutes. […] In particular, FIG. 9 illustrates that intravenously infused U44069 causes PVR to reach a steady-state increase by 30 minutes and that the steady-state increase lasts for a minimum of 180 minutes. U44069 caused significant alterations in other variables (data not shown) over the 180 minute infusion period relative to their baseline values: PPA increased, HR decreased, CO decreased.

[4] = system: rat; conditions: orally, 1 mg/kg, cited from earlier work
[5] = U44069 iv 1 microgram per kg per minute for 180 minutes, four sheep
[6] = U44069 iv 1 microgram per kg per minute, 180 minute infusion

## CCCCC[C@H](O)CC[C@@H]1[C@H]2Cc3cccc(OCC(=O)[O-])c3C[C@H]2C[C@H]1O.[Na+] [Treprostinil sodium]
[1]
  plasma half life: more than 4 hours

## CCCCC[C@H](O)/C=C/C1C2COC(C2)C1C/C=C\CCCC(=O)O (stereo partly drawn) [U44069, 9,11-dideoxy,9α,11α-epoxymethanoprostaglandin F2α]
[2]
  PPA relative to baseline: significantly increased
  PVR: dramatic increase
  cardiac output relative to baseline: decrease
  left atrial pressure: did not alter
[3]; [5]
  duration of steady-state increase in PVR: ≥ 180 min
  time for PVR to reach a steady-state increase: ≤ 30 min
[3]; [6]
  cardiac output (CO) relative to baseline: decreased
  heart rate (HR) relative to baseline: decreased
  pulmonary arterial pressure (PPA) relative to baseline: increased
[3]; U44069 iv infusion, any time point
  left atrial pressure (PLA) relative to baseline: did not significantly change
[3]; U44069 iv infusion, significant only at 30 and 60 minutes
  central venous pressure (PCV) relative to baseline: increased
[3]; U44069 iv infusion, statistically different only at 120, 150 and 180 minutes
  systemic arterial pressure (PSYS) relative to baseline: increased above baseline values

## CCCCC[C@H](O)CC[C@@H]1[C@H]2Cc3cccc(OCC(=O)OC)c3C[C@H]2C[C@H]1O [9-deoxy-2′,9α-methano-3-oxa-4,5,6-trinor-3,7-(1′,3′-interphenylene)-PGF1, methyl ester]
[4]; after 52 min
  blood pressure still lower after 52 min: 14 mm
[4]
  lowered blood pressure: 44 mmHg
